Assay results from patent US20210244791A1, “APPLICATION OF PEDF-DERIVED SHORT PEPTIDES IN TENDON HEALING” (BRIM Biotechnology, Inc., priority 2018, published 2021).

What was measured:
cyclin D1 = test: Western blot analysis of cyclin D1 expression in TSPC; assay type: cell-based, rabbit; details: TSPC treated 24 h; compared with solvent-treated cells; normalized to β-actin
Protocol: Primary rabbit TSPC were treated with 10NM 29-mer or its variants for 24 h. Representative blots (A) and densitometric analysis with the SD (B) from three independent experiments are shown. Cyclin D1 expression was normalized to ([…]. *P<0.01 vs. solvent-treated cells. ^#P<0.05 vs. 29-mer-treated cells.
Achilles tendons from New Zealand White rabbits (6-8 months old, 3.0-4.0 kg) were used in this study. Achilles tendons were washed two times with sterile phosphate-buffered saline (PBS) containing 50 μg/ml gentamicin. The tendon and tendon sheath were cut into small pieces (1-2 mm^3). Each 100 mg of fragment was then digested in a solution containing 3 mg/ml of type I collagenase and 4 mg/ml of dispase in 1 ml balance salt solution (BSS; Alcone) at 37° C. for 4 hours. The digested tissues were washed three times with PBS and collected by centrifugation (800 g for 10 min). The digested tissues were placed in tissue-culture plates (Falcon Labware; NJ, USA) and resuspended in high-glucose DMEM supplemented with 10% FBS and 50 μg/ml gentamycin, and maintained at 37° C. with 5% CO2. After 5 days, the medium was changed to remove the loosened tissue residues. Subsequently, tendon cells were incubated with 10% FBS medium for 2 days, and then cultured with a basal medium (2% FBS, 1% ITSE, 300 μg/ml L-glutamine, 1% antibiotic-antimicotic solutions) for further 10 days. Culture medium was changed every 3 days. For passage, tendon cells were harvested with 0.25% trypsin/EDTA, cell counting by haemocytometer, approximately 5×10^3 cells were seeded in each well of a 96-well cell culture plate or 2×10^5 cells were seeded in each well of a 6-well cell culture plate for 24 h. These expanded tendon cells were then treated with 10 μM 29-mer or its variants in fresh basal medium for further 24 h and subjected to cell proliferation assay and western blot analysis, respectively.
Cell lysis, SDS-PAGE, and antibodies used for immunoblotting were performed as described (Ho et al., 15-deoxy-Delta(12,14)-prostaglandin J2 induces vascular endothelial cell apoptosis through the sequential activation of MAPKS and p53. J Biol. Chem., 2008; 283(44): 30273-30288). The band intensity in immunoblot was evaluated with a Model GS-700 imaging densitometer (Bio-Rad Laboratories, Hercules, Calif.) and analyzed using Labworks 4.0 software.
However, the 29-mer effect on cyclin D1 protein induction was almost abolished by alanine/glycine replacement at residue S93, A96, Q98, 1103, 1104 and R106, respectively (1.3±0.1, 1.5±0.3, 1.3±0.1, 0.9±0.1, 1.3±0.2, and 1.0±0.3). […] The data also imply that the PDSP at positions Ser93, Ala96, Gln98, Ile103, Ile104, and Arg106 are important for sustaining the PDSP effect on induction of TSPC proliferation.

injured Achilles tendon = test: Rat model of Achilles tendon injury, histology (H&E) and histopathological score; assay type: in vivo; details: 1 week postoperative
Excerpt: Representative micrographs of the histopathological analysis by H&E staining. H&E-stained sections in higher magnification show uninjured tendon tissue with a relative scarcity of cells among the collagen fibers.
(A) Representative H&E-stained longitudinal sections in higher magnification show the nuclei morphologies in uninjured tendon tissue and injured tendon treated with vehicle/alginate and 29-mer/alginate for 1 week. (B) Histopathological scores. Total scores were determining by fiber structure, fiber arrangement, rounding of the nuclei, resident cell density and inflammation (infiltration of inflammatory cells, neovascularization and fatty deposits). Data are reported as mean±SE. *P<0.0005 versus vehicle/alginate-treated tendon; ^#P<0.05 versus 29-mer/alginate-treated tendon.
(§1) To investigate the effects of the 29-mer peptide on tendon healing, a rat model of Achilles tendon injury was established as reported by Orhan et al. (The effect of extracorporeal shock waves on a rat model of injury to tendon Achilles. A histological and biomechanical study. J. Bone Joint Surg. Br. 2004;.86(4):.613-618). Adult 10-week-old male Sprague-Dawley rats (initial body weight=312±11 g) were anesthetized by an intraperitoneal injection of xylazine (10 mg/kg). Then, the left tendo Achilles injury was created by full-thickness insertion of an 18-G needle through tendo Achilles 1 cm proximal to the calcaneum attachment site. This created a horizontal wound that was flanked by intact tendon tissue to prevent the retraction of severed ends. The skin incision was closed after the wound was irrigated with sterile saline. Treatments were applied to area around the tendon lesion by subcutaneous injection with 150 μl of alginate gel mixed with 100 μM 29-mer or DMSO vehicle (six rats per experimental condition).
The tendon and surrounding soft tissue were dissected. Specimens were fixed in a 4% paraformaldehyde (PFA) solution and then were embedded in paraffin blocks. Sections (5 μm in thickness) were longitudinally cut and stained with hematoxylin and eosin (H&E) or used for immunohistochemical examination. 36 sections per tendon were carefully prepared so as to include the most severely degenerated area. Images were captured using a Nikon Eclipse 80i microscope (Nikon Corporation, Tokyo, Japan) equipped with a Leica DC 500 camera (Leica Microsystems, Wetzlar, Germany). Four sections of each sample containing injured tendon tissues were selected and evaluated by two blinded observers to assess the tendon morphology according to a modified semi-quantitative grading score from 0 to 3 proposed by Chen et al. (Tendon derived stem cells promote platelet-rich plasma healing in collagenase-induced rat Achilles tendinopathy. Cell Physiol. Biochem., 2014; 34(6): 2153-68). The scores analyzed the fiber structure (0-3), fiber arrangement (0-3), rounding of the nuclei (0-3), resident cell density (0-3), and inflammation (0-3; infiltration of inflammatory cells, neovascularization and fatty deposits). According to this grading system, a perfectly normal tendon obtained a score of 0, whereas a score of 15 was assigned to maximally abnormal tendons.
To investigate the therapeutic effect of the 29-mer peptide on injured tendon, a rat model of Achilles tendon injury was established by full-thickness insertion of an 18-G needle through the tendon Achilles. We delivered the 29-mer in a 150 μl alginate gel, which releases 90% loaded 29-mer in 5 days as described in a previous protocol (Ho et al., PEDF-derived peptide promotes skeletal muscle regeneration through its mitogenic effect on muscle progenitor cells. Am J Physiol. Cell Physiol. 2015 Aug. 1; 309(3): C159-68).

CD146-positive TSPC = test: CD146 immunostaining of TSPC in injured Achilles tendon; assay type: in vivo, rat; details: 1 week after wounding; peptide/alginate gel; vehicle/alginate 38.3±7.8
Protocol: (A) Representative CD146-stained longitudinal sections. (Original magnification×200). (B) The number of CD146-positive TSPC per 200×field of view on injured tendon sections. Data are reported as mean±SE. Total CD146^+ cells were evaluated from 6 sections/tendon specimen, with 3 rats in each group. *P<0.001 versus vehicle/alginate-treated tendon; #p <0.001 versus 29-mer/alginate-treated tendon.
as §1, with “The skin incision was closed after the wound was irrigated with sterile saline. Treatments were applied to area around the tendon lesion by subcutaneous injection with 150 μl of alginate gel mixed with 100 μM 29-mer or DMSO vehicle (six rats per experimental condition).” left out
CD146 is one of the TSPC markers. […] To test the mechanism of the 29-mer-induced tendon repair, CD146 immunostaining of TSPC located at injured tendon was measured, at 1 week after wounding. […]

Substance: H105A: 29-mer variant with single alanine alteration at residue 105 (SLGAEQRTESIIARALYYDLISSPDIHGT; UniProt P36955 93-121, looked up, variant H105A)
- induction of the cyclin D1 protein (cyclin D1): 2.7±0.3 fold
- total histopathological score (injured Achilles tendon; peptide/alginate gel, 0 = normal tendon, 15 = maximally abnormal, vehicle/alginate 12.7±0.6): 7.8±0.7
- histological appearance of treated tendon (H&E staining) (injured Achilles tendon; subcutaneous 150 μl alginate gel with 100 μM peptide): uniform appearance of well-aligned collagen fibers and no degenerative events similar to the 29-mer treatment
- number of CD146-positive TSPC on injured tendon sections (CD146-positive TSPC): 88.5±7.8 cells per 200× field
